Values of other authors in patent US6153225A (Elan Pharma International Limited, priority 1998, dated 2000).
Counter-ions that a name gives are not always drawn.

SMILES | pain relief compared with aspirin (menstrual cramps, toothaches, minor arthritis, injuries with inflammation) | remission of acute and very high intensity pain (naproxen sodium salt)
COc1ccc2cc([C@H](C)C(=O)O)ccc2c1 [Naproxen, d-2(6-methoxy-2-naphthyl)propionic acid] | more potent pain reliever than aspirin | –
COc1ccc2cc([C@H](C)C(=O)O)ccc2c1 [naproxen sodium salt] | – | rapid and sustained remission
